Source: PMC6269071, “New Quinoxaline Derivatives as Potential MT1 and MT2 Receptor Ligands” (Molecules, 2012)

How the values were obtained:
[1] = biological target: T1, human melatonin MT1 receptor (Homo sapiens, UniProt P48039); test: 2-[125I]Iodomelatonin competitive binding, MT1; conditions: 2-[125I]Iodomelatonin radioligand; membranes of HEK or CHO cells; mean of at least three experiments; read-out: MT1 Ki (µM) ± SEM
T1 construct: expressed in transfected cells; host or cells: HEK or CHO cells, stably transfected; membrane preparations
Experimental: (§1) The binding affinity of the newly synthesized quinoxalines for MT1 and MT2 receptors was tested through competitive binding experiments using 2-[^125I]Iodomelatonin as radioligand.
(§2) Grown at confluence at 37 °C ([…]/5% CO2), they were harvested in PBS containing EDTA 2 mM and centrifuged at 1,000 g for 5 min (4 °C). The resulting pellet was suspended in Tris 5 mM (pH 7.5), containing EDTA 2 mM and homogenized using a Kinematica polytron. The homogenate was then centrifuged (95,000 g, 30 min, 4 °C) and the resulting pellet suspended in 75 mM Tris (pH 7.5), 12.5 mM MgCl2 and 2 mM EDTA. Aliquots of membrane preparations were stored at −80 °C until use.
(§3) 2-[^125I]Iodomelatonin binding assay conditions are essentially as previously described. Briefly, binding is initiated by the addition of membrane preparations from stable transfected HEK or CHO cells diluted in binding buffer (50 mM Tris-HCl buffer, pH 7.4, containing 5 mM MgCl2) to 2-[^125I]Iodomelatonin (25 or 200 pM for MT1 and MT2 receptors, respectively, expressed in HEK cells or 20 pM for MT1 and MT2 receptors expressed in CHO cells) and the tested drug. […] After 120 min of incubation at 37 °C, the reaction was stopped by rapid filtration through GF/B filters presoaked in 0.5% (v/v) polyethylenimine. Filters were washed three times with 1 mL of ice-cold 50 mM Tris-HCl buffer, pH 7.4. Data from dose-response curves (seven concentrations in duplicate) were analyzed using the program PRISM (Graph Pad Software Inc., San Diego, CA, USA) to yield IC50 (inhibitory concentration 50). Results were expressed as Ki using the Cheng and Prusoff equation: Ki = IC50/[1 + (L/KD)], where [L] is the concentration of radioligand used in the assay and KD, the dissociation constant of the radioligand characterizing the membrane preparation.

[2] = biological target: T2, human melatonin MT2 receptor (Homo sapiens, UniProt P49286); test: 2-[125I]Iodomelatonin competitive binding, MT2; conditions: for Ki: 2-[125I]Iodomelatonin radioligand, membranes of HEK or CHO cells, mean of at least three experiments, read-out: MT2 Ki (µM) ± SEM
T2 construct: expressed in transfected cells; host or cells: HEK or CHO cells, stably transfected; membrane preparations
T2 sequence (P49286 1-362): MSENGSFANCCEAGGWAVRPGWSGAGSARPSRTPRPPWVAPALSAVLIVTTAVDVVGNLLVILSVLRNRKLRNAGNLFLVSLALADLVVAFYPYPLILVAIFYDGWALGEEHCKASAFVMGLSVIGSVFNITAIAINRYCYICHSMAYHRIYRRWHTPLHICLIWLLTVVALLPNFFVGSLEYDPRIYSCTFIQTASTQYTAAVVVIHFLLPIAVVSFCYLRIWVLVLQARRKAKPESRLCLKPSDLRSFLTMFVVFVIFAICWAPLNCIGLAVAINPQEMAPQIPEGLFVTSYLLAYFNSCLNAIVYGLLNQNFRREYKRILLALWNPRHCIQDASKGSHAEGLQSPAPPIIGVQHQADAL
Experimental: as §1, §2, §3

[3] = biological target: T3, MT2 receptor (CHO-MT2 membranes) (Homo sapiens, UniProt P49286); test: [35S]GTPγS binding assay, MT2; assay type: biochemical; conditions: for functional profile at MT2 / EC50: [35S]GTPγS binding; for EC50: CHO membranes, read-out: MT2 EC50 ± SEM
T3 construct: expressed in transfected cells; host or cells: CHO cells, transfected; membranes
T3 sequence (P49286 1-362): T2 sequence (P49286 1-362)
Experimental: as §2
[^35S]GTPγS binding assay was performed according to published methodology. Briefly, membranes from transfected CHO cells expressing MT1 and MT2 receptor subtypes and compounds were diluted in binding buffer (20 mM HEPES, pH 7.4, 100 mM NaCl, 3 μM GDP, 3 mM MgCl2, and 20 μg/mL saponin). Incubation was started by the addition of 0.2 nM [^35S]GTPγS to membranes (20 μg/mL) and drugs, and further followed for 1h at room temperature.

T1 sequence (P48039 whole entry): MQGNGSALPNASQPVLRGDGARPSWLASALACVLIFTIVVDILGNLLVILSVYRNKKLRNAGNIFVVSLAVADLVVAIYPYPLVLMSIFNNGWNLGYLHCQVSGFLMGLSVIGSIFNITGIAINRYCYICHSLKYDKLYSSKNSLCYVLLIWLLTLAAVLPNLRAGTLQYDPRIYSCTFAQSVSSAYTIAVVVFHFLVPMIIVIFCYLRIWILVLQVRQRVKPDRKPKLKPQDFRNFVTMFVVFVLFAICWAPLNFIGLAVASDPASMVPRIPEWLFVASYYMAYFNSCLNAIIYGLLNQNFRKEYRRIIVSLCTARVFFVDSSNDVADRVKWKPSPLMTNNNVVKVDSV

Row | SMILES | Ki [1] [µM] | Ki [2] [µM] | functional profile at MT2 [3] | EC50 [3] [µM] | MT2/MT1 selectivity ratio ([2]; ratio of binding affinities MT1 vs MT2) | Emax ([3]; read-out: MT2 Emax ± SEM (%)) [%]
1 | COc1nc2ccccc2nc1CNC(C)=O [Compound 3a, N-(3-Methoxyquinoxalin-2-ylmethyl)-acetamide] | 2.98 ± 0.36 | 0.88 ± 0.3 | – | – | – | –
2 | CCC(=O)NCc1nc2ccccc2nc1OC [Compound 3b, N-(3-Methoxyquinoxalin-2-ylmethyl)-propionamide] | 2.6 ± 0.23 | 0.66 ± 0.01 | – | – | – | –
3 | CCCC(=O)NCc1nc2ccccc2nc1OC [Compound 3c, N-(3-Methoxyquinoxalin-2-ylmethyl)-butyramide] | 0.75 ± 0.36 | 1.1 ± 0.03 | – | – | – | –
4 | COc1nc2ccccc2nc1CNC(=O)C(C)C [Compound 3d, N-(3-Methoxyquinoxalin-2-ylmethyl)-isobutyramide] | 1.23 ± 0.32 | 0.47 ± 0.02 | – | – | – | –
5 | COc1nc2ccccc2nc1CNC(=O)c1ccccc1 [Compound 3e, N-(3-Methoxy-quinoxalin-2-ylmethyl)-benzamide] | > 1000 | > 1000 | – | – | – | –
6 | CCNC(=O)NCc1nc2ccccc2nc1OC [Compound 3f, Ethyl-3-(3-methoxyquinoxalin-2-ylmethyl)urea] | > 1000 | 0.4 ± 0.13 | – | – | – | –
7 | CCCNC(=O)NCc1nc2ccccc2nc1OC [Compound 3g, 1-(3-Methoxyquinoxalin-2-ylmethyl)-3-propylurea] | > 1000 | 0.44 | – | – | – | –
8 | COc1nc2ccccc2nc1CNC(=O)NC(C)C [Compound 3h, 1-Isopropyl-3-(3-methoxyquinoxalin-2-ylmethyl)urea] | > 1000 | > 1000 | – | – | – | –
9 | COc1nc2ccccc2nc1CNC(=O)Nc1ccccc1 [Compound 3i, 1-(3-Methoxyquinoxalin-2-ylmethyl)-3-phenyl-urea] | > 1000 | > 1000 | – | – | – | –
10 | COc1nc2ccc(NC(C)=O)cc2nc1OC [Compound 6a, N-(2,3-Dimethoxyquinoxalin-6-yl)acetamide] | 20 ± 1.82 | 0.08 | antagonist | > 10 | 250 | –
11 | CCC(=O)Nc1ccc2nc(OC)c(OC)nc2c1 [Compound 6b, N-(2,3-Dimethoxyquinoxalin-6-yl)propionamide] | 17.6 ± 7.81 | 4.36 ± 1.22 | – | – | – | –
12 | CCCC(=O)Nc1ccc2nc(OC)c(OC)nc2c1 [Compound 6c, N-(2,3-Dimethoxyquinoxalin-6-yl)butyramide] | 11.5 ± 2.8 | 1.35 ± 0.31 | full agonist | 1.3 ± 0.26 | – | 84 ± 9.5
13 | COc1nc2ccc(NC(=O)C(C)C)cc2nc1OC [Compound 6d, N-(2,3-Dimethoxyquinoxalin-6-yl)isobutyramide] | 3.4 ± 1.37 | 10.5 ± 2.96 | – | – | – | –
14 | COc1nc2ccc(NC(=O)c3ccccc3)cc2nc1OC [Compound 6e, N-(2,3-Dimethoxyquinoxalin-6-yl)benzamide] | > 1000 | > 1000 | – | – | – | –
15 | CCNC(=O)Nc1ccc2nc(OC)c(OC)nc2c1 [Compound 6f, 1-(2,3-Dimethoxyquinoxalin-6-yl)-3-ethylurea] | 3.41 ± 1.89 | 28.8 | – | – | – | –
16 | CCCNC(=O)Nc1ccc2nc(OC)c(OC)nc2c1 [Compound 6g, 1-(2,3-Dimethoxyquinoxalin-6-yl)-3-propylurea] | 1.63 ± 0.44 | 0.489 ± 0.07 | – | – | – | –
17 | COc1nc2ccc(NC(=O)NC(C)C)cc2nc1OC [Compound 6h, 1-(2,3-Dimethoxyquinoxalin-6-yl)-3-isopropylurea] | > 1000 | > 1000 | – | – | – | –
18 | COc1nc2ccc(NC(=O)Nc3ccccc3)cc2nc1OC [Compound 6i, 1-(2,3-Dimethoxyquinoxalin-6-yl)-3-phenylurea] | > 1000 | > 1000 | – | – | – | –
19 | COc1ccc2ncc(CNC(C)=O)nc2c1 [Compound 10a, N-[(7-Methoxyquinoxalin-2-yl)methyl]acetamide] | > 1000 | > 1000 | – | – | – | –
20 | CCC(=O)NCc1cnc2ccc(OC)cc2n1 [Compound 10b, N-[(7-Methoxyquinoxalin-2-yl)methyl]propionamide] | > 1000 | 0.34 ± 0.15 | – | – | – | –
21 | CCCC(=O)NCc1cnc2ccc(OC)cc2n1 [Compound 10c, N-[(7-Methoxyquinoxalin-2-yl)methyl]butyramide] | 0.21 ± 0.11 | 0.1 ± 0.01 | – | – | – | –
22 | COc1ccc2ncc(CNC(=O)C(C)C)nc2c1 [Compound 10d, N-[(7-Methoxyquinoxalin-2-yl)methyl]isobutyramide] | 0.32 ± 0.04 | 0.16 | – | – | – | –
23 | COc1ccc2ncc(CNC(=O)c3ccccc3)nc2c1 [Compound 10e, N-[(7-Methoxyquinoxalin-2-yl)methyl]benzamide] | > 1000 | > 1000 | – | – | – | –
